For 14 molecules, IC50 results are on record in patent publication US10501438B2, “Aryl-substituted dihydroquinolinones, their preparation and their use as pharmaceuticals” (NEOMED Institute, priority 2015, dated 2019).

The first test deals with human C-Myc transcription in MV-4-11 cells. Description: Transcription of human C-Myc in human leukemic MV-4-11 cells (QuantiGene 2.0). It is filed as cell-based. To be noted: Homo sapiens, MV4-11, 4 h, inhibition of C-Myc mRNA, 4 hours treatment. The procedure: b) Transcription of Human C-Myc in Human Leukemic MV-4-11 Cells:
The effect of compounds on transcription of human C-Myc gene is monitored in human B-myelomonocytic leukemia cell line MV-4-11 (from American Type Culture Collection (ATCC), Manassas, Va., USA) using QuantiGene 2.0 assay kit (Affymetrix, Santa Clara, Calif., USA).
Typically, 8,000 MV-4-11 cells are plated in sterile 96-well plates (Costar #3598 from Fisher Scientific Canada, Ottawa, Ontario, Canada) in Iscove's medium supplemented with 10% fetal bovine serum, glutamine (2 mM), and penicillin (100 I.U.) and streptomycin (100 μg/mL) (all from Wisent Inc., St. Bruno, Quebec, Canada). Compounds are dissolved in DMSO at 30 mM. A series of 1:3 dilutions are first made in DMSO, and further 1:100 dilutions are made in serum-containing cell culture media. The final concentration of DMSO is 0.1% in cell culture media. After cells are treated with various concentrations of test compound for 4 hours, cells are lysed using Quantigene 2.0 sample processing kit (#QS0100). C-Myc mRNA is detected using a QuantiGene 2.0 assay kit (#QS0009) with gene-specific probe to human C-Myc (#SA-50182) following the manufacturer's recommendations. Luminescene signals are read on Flexstation II microplate reader (Molecular Devices, Sunnyvale, Calif., USA).
A word on the IC50: it is the concentration needed to halve the response being measured. The low end stands for greater potency, the high end for weaker potency. On to `Cc1cc(-c2cc3c(c(OCc4cscn4)c2)NC(=O)CC3)cn(C)c1=O` [Compound 82, 6-(1,5-dimethyl-6-oxo-1,6-dihydropyridin-3-yl)-8-(thiazol-4-ylmethoxy)-3,4-dihydroquinolin-2(1H)-one], for which 250 nM corresponded to half-maximal inhibition (IC50).
On to `Cc1cc(-c2ccc3c(c2Cc2ccccc2C#N)CCC(=O)N3)cn(C)c1=O` [Compound 89, 2-((6-(1,5-dimethyl-6-oxo-1,6-dihydropyridin-3-yl)-2-oxo-1,2,3,4-tetrahydroquinolin-5-yl)methyl)benzonitrile], for which the IC50 worked out at 560 nM.
The same measure, in the same setting: under `Cc1cc(-c2cc3c(c(OCc4ncco4)c2)NC(=O)CC3)cn(C)c1=O` [Compound 81, 6-(1,5-dimethyl-6-oxo-1,6-dihydropyridin-3-yl)-8-(oxazol-2-ylmethoxy)-3,4-dihydroquinolin-2(1H)-one] stands 530 nM.
Still for that read-out and setting: the result for `Cc1cc(-c2ccc3c(c2Cc2cccnc2)CCC(=O)N3)cn(C)c1=O` [Compound 58, 6-(1,5-dimethyl-6-oxo-1,6-dihydropyridin-3-yl)-5-(pyridin-3-ylmethyl)-3,4-dihydroquinolin-2(1H)-one] reads 250 nM.
`Cc1cc(-c2ccc3c(c2COC2CCCC2)NC(=O)CC3)cn(C)c1=O` [Compound 38, 8-((cyclopentyloxy)methyl)-7-(1,5-dimethyl-6-oxo-1,6-dihydropyridin-3-yl)-3,4-dihydroquinolin-2(1H)-one] registered an IC50 of 540 nM.
Same read-out and setting: under `Cc1cc(-c2ccc3c(c2COC2CCCC2)CCC(=O)N3)cn(C)c1=O` [Compound 68, 5-((cyclopentyloxy)methyl)-6-(1,5-dimethyl-6-oxo-1,6-dihydropyridin-3-yl)-3,4-dihydroquinolin-2(1H)-one] stands 8560 nM; under `Cc1cc(-c2cc3c(c(NCc4cccnc4)c2)NC(=O)CC3)cn(C)c1=O` [Compound 78, 6-(1,5-dimethyl-6-oxo-1,6-dihydropyridin-3-yl)-8-(pyridyl-3-ylmethylamino)-3,4-dihydro-1H-quinolin-2-one], 100 nM.
On to `Cc1cc(-c2cc3c(c(COC4CCCCC4)c2)NC(=O)CC3)cn(C)c1=O` [Compound 27, 8-(cyclohexoxymethyl)-6-(1,5-dimethyl-6-oxo-3-pyridyl)-3,4-dihydro-1H-quinolin-2-one], for which the IC50 was found to be 150 nM.
`Cn1cc(-c2cc3c(c(OCc4ccccn4)c2)NC(=O)CC3)cc(Cl)c1=O` [Compound 79, 6-(5-chloro-1-methyl-6-oxo-1,6-dihydropyridin-3-yl)-8-(pyridin-2-ylmethoxy)-3,4-dihydroquinolin-2(1H)-one] displayed an IC50 of 240 nM.
Still for that read-out and setting: under `Cc1cc(-c2ccc3c(c2Cc2cccc(C#N)c2)CCC(=O)N3)cn(C)c1=O` [Compound 88, 3-((6-(1,5-dimethyl-6-oxo-1,6-dihydropyridin-3-yl)-2-oxo-1,2,3,4-tetrahydroquinolin-5-yl)methyl)benzonitrile] stands 260 nM.
Still for that read-out and setting: the result for `Cc1cc(-c2cc3c(c(OC4CCCCC4)c2)NC(=O)CC3)cn(C)c1=O` [Compound 16, 8-(cyclohexyloxy)-6-(1,5-dimethyl-6-oxo-1,6-dihydropyridin-3-yl)-3,4-dihydroquinolin-2(1H)-one] reads 530 nM.
Molecule `Cc1cc(-c2cc3c(c(OCc4cnccn4)c2)NC(=O)CC3)cn(C)c1=O` [Compound 52, 6-(1,5-dimethyl-6-oxo-1,6-dihydropyridin-3-yl)-8-(pyrazin-2-ylmethoxy)-3,4-dihydroquinolin-2(1H)-one] had an IC50 of 550 nM.
Same read-out and setting: under `Cc1cc(-c2cc3c(cc2COC2CCC2)NC(=O)CC3)cn(C)c1=O` [Compound 69, 7-(cyclobutoxymethyl)-6-(1,5-dimethyl-6-oxo-1,6-dihydropyridin-3-yl)-3,4-dihydroquinolin-2(1H)-one] stands 1250 nM.

The test is the same for the next values; noted with them: inhibition of C-Myc mRNA, 4 hours treatment.
`Cc1cc(-c2cc3c(c(OCC4CCCOC4)c2)NC(=O)CC3)cn(C)c1=O` (centres unmarked) [Compound 54b, 6-(1,5-dimethyl-6-oxo-1,6-dihydropyridin-3-yl)-8-((tetrahydro-2H-pyran-3-yl)methoxy)-3,4-dihydroquinolin-2(1H)-one] returned an IC50 of 800 nM.
